# Results reported in patent US20260062420A1, “NOVEL DPP1 INHIBITORS AND USES THEREOF” (Insmed Incorporated, priority 2022, published 2026).
# pIC50: −log10 of the molar value. Read-outs that look alike come from different tables or passages of the source.
# Legend:
# active mouse DPP1 enzyme = active mouse DPP1 enzyme (Mus musculus (Mouse), UniProt P97821); assay: Mouse DPP1 Enzyme IC50 Assay; assay type: biochemical; details: for IC50: Table 16, read-out: IC50, nM, Mouse
# Protocol: Test articles were applied to active mouse DPP1 enzyme (R&D Systems; Minneapolis, MN) in Assay Buffer (50 mM MES pH 5.5, 50 mM NaCl, 5 mM DTT) in a total reaction volume of 125 μL. 25 μL of compound in Assay Buffer plus 5% DMSO was first added to 50 μL of active mouse DPP1 enzyme at a concentration of 62.5 pg/μL and allowed to pre-incubate for 10 minutes at 37° C. after which 50 μL of 1000 μM H-Gly-Arg-AMC substrate (Bachem; St. Torrance, CA) was added, giving final substrate concentration of 400 μM and a final DMSO concentration of 1%. Substrate cleavage was measured for 90 minutes at 37° C., with fluorescence at Excitation/Emission 350/450 nm measured every 5 minutes. DPP1 concentration was interpolated based on its activity relative to a standard curve of recombinant active mouse DPP1 enzyme. IC50 values for each compound were calculated via the XLFit (IDBS Version 5.3.1.3) Add-On to Microsoft Excel using the four parameter fit equation y=(A+((B−A)/(1+((C/x)^D)))), which appears as equation number 205 (4 Parameter Logistic Model or Sigmoidal Dose-Response Model) in XLFit. Default constraints were used for each Parameter. IC50 was defined as the compound concentration at which 50% of enzyme activity was inhibited when compared to the no-compound control.
# [1] = target: Recombinant human DPP1 enzyme (Homo sapiens (Human), UniProt P53634); assay: Human DPP1 Enzyme IC50 Assay; assay type: biochemical; details: for IC50: Table 16, read-out: IC50, nM, Human
# Recombinant human DPP1 enzyme, sequence (P53634 25-134): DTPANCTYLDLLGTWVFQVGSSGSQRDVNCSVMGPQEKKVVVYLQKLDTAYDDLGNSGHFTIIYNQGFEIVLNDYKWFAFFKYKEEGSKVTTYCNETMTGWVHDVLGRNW
# Recombinant human DPP1 enzyme, sequence (P53634 231-394): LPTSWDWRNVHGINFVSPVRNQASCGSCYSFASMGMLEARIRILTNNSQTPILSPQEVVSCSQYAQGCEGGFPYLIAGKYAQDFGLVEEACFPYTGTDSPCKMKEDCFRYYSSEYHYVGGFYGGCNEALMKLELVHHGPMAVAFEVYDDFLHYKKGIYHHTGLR
# Recombinant human DPP1 enzyme, sequence (P53634 395-463): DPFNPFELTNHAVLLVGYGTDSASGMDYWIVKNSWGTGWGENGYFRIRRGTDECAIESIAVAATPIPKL
# Protocol: Recombinant human DPP1 enzyme (R&D Systems; Minneapolis, MN) was first proteolytically processed into its mature form using recombinant human cathepsin L (R&D Systems) in a buffer consisting of 20 mM citric acid pH 4.5, 150 mM NaCl, 1 mM EDTA and 10 mM DTT. Test articles were applied to activated human DPP1 enzyme in Assay Buffer (25 mM MES pH 6.0, 50 mM NaCl, 5 mM DTT) in a total reaction volume of 125 μL. 25 μL of compound in Assay Buffer plus 5% DMSO was first added to 50 μL of activated human DPP1 enzyme at a concentration of 1 ng/μL and allowed to pre-incubate for 10 minutes at 37° C. after which 50 μL of 1000 μM H-Gly-Arg-AMC substrate (Bachem; St. Torrance, CA) was added, giving final substrate concentration of 400 μM and a final DMSO concentration of 1%. Substrate cleavage was measured for 90 minutes at 37° C., with fluorescence at Excitation/Emission 350/450 nm measured every 5 minutes. DPP1 concentration was interpolated based on its activity relative to a standard curve of activated human recombinant DPP1 enzyme. IC50 values for each compound were calculated via the XLFit (IDBS Version 5.3.1.3) Add-On to Microsoft Excel using the four parameter fit equation y={A+[(B−A)]/[1+((C/x)^D)]}, which appears as equation number 205 (4 Parameter Logistic Model or Sigmoidal Dose-Response Model) in XLFit. Default constraints were used for each Parameter.
# [2] = figure legends FIG. 12 and 13, read-out: IC50, in vitro inhibition of mouse DPP1
# [3] = mouse DPP1 enzyme, H-Gly-Arg-AMC substrate 400 μM, Table 13, read-out: IC50
# [4] = figure legends FIG. 14 and 15, read-out: IC50, in vitro inhibition of human DPP1
# active mouse DPP1 enzyme, sequence (P97821 25-134): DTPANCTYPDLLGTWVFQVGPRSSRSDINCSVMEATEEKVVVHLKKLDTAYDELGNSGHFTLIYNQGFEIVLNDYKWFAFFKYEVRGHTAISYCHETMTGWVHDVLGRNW
# active mouse DPP1 enzyme, sequence (P97821 231-393): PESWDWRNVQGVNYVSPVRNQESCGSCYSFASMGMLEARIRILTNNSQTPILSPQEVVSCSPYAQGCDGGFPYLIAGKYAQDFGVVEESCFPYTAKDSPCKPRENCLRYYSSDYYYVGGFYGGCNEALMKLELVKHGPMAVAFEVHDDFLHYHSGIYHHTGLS
# active mouse DPP1 enzyme, sequence (P97821 394-462): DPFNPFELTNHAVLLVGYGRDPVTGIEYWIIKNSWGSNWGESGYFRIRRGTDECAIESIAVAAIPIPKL
IC50 (active mouse DPP1 enzyme; mouse DPP1 enzyme),IC50 ([1]; human DPP1 enzyme),Compound,other results
> 5000 nM,> 5000 nM,Cn1c(=O)oc2ccc(-c3ccc(C[C@@H](C#N)NC(=O)C4CNCCN4)cc3)cc21 (stereo partly drawn),
> 5000 nM,> 5000 nM,Cn1c(=O)oc2ccc(-c3ccc(C[C@@H](C#N)NS(=O)(=O)CCN)cc3)cc21,
4350 nM,> 5000 nM,N#Cc1ccc(-c2ccc(C[C@@H](C#N)NC(=O)C3CNC3)cc2)cc1,
,1320 nM,C[C@@H]1NCCC[C@@H]1C(=O)N[C@H](C#N)Cc1ccc(-c2ccc3oc(=O)n(C)c3c2)cc1,
2430 nM,1310 nM,Cn1c(=O)oc2ccc(-c3ccc(CC(C#N)NC(=O)[C@H]4CCNC[C@H]4N)cc3)cc21 (stereo partly drawn),
,> 5000 nM,Cn1c(=O)oc2ccc(-c3ccc(C[C@@H](C#N)NC(=O)[C@]4(C)CNCCO4)cc3)cc21,
45.6 nM,69.2 nM,Cn1c(=O)oc2ccc(-c3ccc(C[C@@H](C#N)NC(=O)[C@@H]4C[C@H]5COC[C@H]5N4)cc3)cc21 [drawing 1154],
,940 nM,Cn1c(=O)oc2ccc(-c3ccc(C[C@@H](C#N)NC(=O)[C@@H]4C[C@@H]5COC[C@@H]5N4)cc3)cc21 [drawing 1156],
,,"Cn1c(=O)oc2ccc(-c3ccc(C[C@@H](C#N)NC(=O)[C@@H]4CNCCCO4)cc3)cc21 [brensocatib, reference compound]",pIC50 (active mouse DPP1 enzyme; [2]): 7.61; pIC50 (active mouse DPP1 enzyme; [3]): 7.61
825 nM,1270 nM,Cn1c(=O)oc2ccc(-c3ccc(C[C@@H](C#N)NC(=O)C4CNC4)cc3)cc21,
,4940 nM,[2H]C([2H])([2H])n1c(=O)oc2ccc(-c3ccc(C[C@@H](C#N)NC(=O)C4CNC4)s3)cc21,
2 nM,2.3 nM,C=C1Oc2ccc(-c3ccc(C[C@@H](C#N)NC(=O)C4CNC[C@H](O)CO4)cc3)cc2N1C (stereo partly drawn),
,664 nM,[2H]C([2H])([2H])n1c(=O)oc2ccc(-c3ccc(C[C@@H](C#N)NC(=O)[C@@H]4C[C@@H]5COC[C@@H]5N4)s3)cc21,
27 nM,,Cn1c(=O)oc2ccc(-c3ccc(C[C@@H](C#N)NC(=O)[C@@H]4CNCCCO4)cc3)cc21 [drawing 1149],
,,"N#Cc1ccc(-c2ccc(C[C@@H](C#N)NC(=O)[C@@H]3C[C@H]4COC[C@H]4N3)cc2)cc1 [IWD-004, (2S,3αR,6αS)—N—((S)-1-cyano-2-(4′-cyano-[1,1′-biphenyl]-4-yl)ethyl)hexahydro-1H-furo[3,4-b]pyrrole-2-carboxamide]","pIC50 (active mouse DPP1 enzyme; [2]): 6.68; pIC50 (active mouse DPP1 enzyme; [3]): 6.68; pIC50 [1, 4]: 6.61"
> 5000 nM,> 5000 nM,CN1COc2ccc(-c3ccc(C[C@@H](C#N)NS(=O)(=O)CCNC4CCCC4)cc3)cc21,
> 5000 nM,> 5000 nM,Cn1c(=O)oc2ccc(-c3ccc(C[C@@H](C#N)NC(=O)C4CS(=O)(=O)CCN4)cc3)cc21 (stereo partly drawn),
2170 nM,2030 nM,Cn1c(=O)oc2ccc(-c3ccc(C[C@@H](C#N)NC(=O)C4CNCC(O)C4)cc3)cc21 (stereo partly drawn),
> 5000 nM,> 5000 nM,Cn1c(=O)oc2ccc(-c3ccc(C[C@@H](C#N)NC(=O)[C@H]4C[C@@H]5COC[C@@H]5N4)cc3)cc21,
,4480 nM,C[C@H]1NCCC[C@H]1C(=O)N[C@H](C#N)Cc1ccc(-c2ccc3oc(=O)n(C)c3c2)cc1,
> 5000 nM,> 5000 nM,C=C1Oc2ccc(-c3ccc(C[C@@H](C#N)NC(=O)C4CC5NCCCC5N4)cc3)cc2N1C (stereo partly drawn),
> 5000 nM,> 5000 nM,Cn1c(=O)oc2ccc(-c3ccc(C[C@@H](C#N)NC(=O)CC(N)C4CC4)cc3)cc21 (stereo partly drawn),
> 5000 nM,> 5000 nM,Cn1c(=O)oc2ccc(-c3ccc(C[C@@H](C#N)NC(=O)[C@@H]4C[C@H]5OCC[C@H]5N4)cc3)cc21,
,2610 nM,N#Cc1ccc(-c2ccc(C[C@@H](C#N)NC(=O)C3C[C@@H]4COC[C@@H]4N3)cc2)cc1 (stereo partly drawn),
> 5000 nM,> 5000 nM,N#Cc1ccc(-c2ccc(C[C@@H](C#N)NC(=O)C3CNC3)s2)cc1,
2770 nM,3660 nM,Cn1c(=O)oc2ccc(-c3ccc(C[C@@H](C#N)NC(=O)C4(CN)CCC4)cc3)cc21,

IC50 (active mouse DPP1 enzyme; mouse DPP1 enzyme),IC50 ([1]; human DPP1 enzyme),Compound,other results
3290 nM,2540 nM,Cn1c(=O)oc2ccc(-c3ccc(C[C@@H](C#N)NC(=O)CC4(N)CCOC4)cc3)cc21 (stereo partly drawn),
,1220 nM,Cn1c(=O)oc2ccc(-c3ccc(C[C@@H](C#N)NC(=O)C4CNCC45CCC5)cc3)cc21 (stereo partly drawn) [drawing 1229],
366 nM,2270 nM,N#Cc1ccc(-c2ccc(C[C@@H](C#N)NC(=O)[C@@H]3C[C@@H]4COC[C@@H]4N3)s2)cc1,
> 5000 nM,> 5000 nM,Cn1c(=O)oc2ccc(-c3ccc(CC(C#N)NC(=O)[C@H]4CCNC[C@@H]4N)cc3)cc21 (stereo partly drawn),
> 5000 nM,> 5000 nM,Cn1c(=O)oc2ccc(-c3ccc(C[C@@H](C#N)NC(=O)CC4CCCN4)cc3)cc21 (stereo partly drawn),
8.1 nM,,Cn1c(=O)oc2ccc(-c3ccc(C[C@@H](C#N)NC(=O)[C@@H]4CNCCCO4)c(F)c3)cc21,
4930 nM,> 5000 nM,Cn1c(=O)oc2ccc(-c3ccc(C[C@@H](C#N)NC(=O)C4CNC4)s3)cc21,
> 5000 nM,> 5000 nM,Cn1c(=O)oc2ccc(-c3ccc(C[C@@H](C#N)NC(=O)C4CCNCC4)cc3)cc21,
3160 nM,2180 nM,Cn1c(=O)oc2ccc(-c3ccc(C[C@@H](C#N)NC(=O)C4(C)CNCCO4)cc3)cc21 (stereo partly drawn),
,,"Cn1c(=O)oc2ccc(-c3ccc(C[C@@H](C#N)NC(=O)[C@@H]4C[C@H]5COC[C@H]5N4)cc3)cc21 [IWD-005, (2S,3αR,6αS)—N—((S)-1-cyano-2-(4-(3-methyl-2-oxo-2,3-dihydrobenzo[d]oxazol-5-yl)phenyl)ethyl)hexahydro-1H-furo[3,4-b]pyrrole-2-carboxamide]","pIC50 (active mouse DPP1 enzyme; [2]): 7.34; pIC50 (active mouse DPP1 enzyme; [3]): 7.34; pIC50 [1, 4]: 7.16; pIC50 ([1]; human DPP1 enzyme, H-Gly-Arg-AMC substrate 400 μM, Table 14, read-out: IC50): 7.16"
2760 nM,4820 nM,Cn1c(=O)oc2ccc(-c3ccc(C[C@@H](C#N)NC(=O)C4CNCCS(=O)(=O)C4)cc3)cc21 (stereo partly drawn),
19.6 nM,30.4 nM,Cn1c(=O)oc2ccc(-c3ccc(C[C@@H](C#N)NC(=O)[C@@H]4C[C@H]5C[C@H]5N4)cc3)cc21 [drawing 1152],
,> 5000 nM,C=C1Oc2ccc(-c3ccc(C[C@@H](C#N)NC(=O)CC4(N)CCCS(=O)(=O)C4)cc3)cc2N1C (stereo partly drawn),
> 5000 nM,> 5000 nM,Cn1c(=O)oc2ccc(-c3ccc(C[C@@H](C#N)NC(=O)C4(N)CCS(=O)(=O)C4)cc3)cc21 (stereo partly drawn),
107 nM,526 nM,N#Cc1ccc(-c2ccc(C[C@@H](C#N)NC(=O)[C@@H]3C[C@@H]4COC[C@@H]4N3)c(F)c2)cc1,
> 5000 nM,> 5000 nM,Cn1c(=O)oc2ccc(-c3ccc(C[C@@H](C#N)NS(N)(=O)=O)cc3)cc21,
,1660 nM,Cn1c(=O)oc2ccc(-c3ccc(CC(C#N)NC(=O)C4CNC4)cc3)cc21 (stereo not drawn),
209 nM,269 nM,N#Cc1ccc(-c2ccc(C[C@@H](C#N)NC(=O)[C@@H]3C[C@H]4COC[C@H]4N3)cc2)cc1 [drawing 1153],
,1040 nM,Cn1c(=O)oc2ccc(-c3ccc(CC(C#N)NC(=O)[C@@]4(C)CNCCO4)cc3)cc21 (stereo partly drawn),
> 5000 nM,> 5000 nM,Cn1c(=O)oc2ccc(-c3ccc(C[C@@H](C#N)NC(=O)C4CCCCC4)cc3)cc21,
1900 nM,1760 nM,Cn1c(=O)oc2ccc(-c3ccc(C[C@@H](C#N)NC(=O)C4CC=CCNC4)cc3)cc21 (stereo partly drawn),
1850 nM,1560 nM,N#Cc1ccc(-c2ccc(C[C@@H](C#N)NC(=O)C3CNC3)c(F)c2)cc1,
> 5000 nM,> 5000 nM,Cn1c(=O)oc2ccc(-c3ccc(C[C@@H](C#N)NC(=O)CC4COCCN4)cc3)cc21 (stereo partly drawn),
583 nM,745 nM,CO[C@H]1CNC[C@@H](C(=O)N[C@H](C#N)Cc2ccc(-c3ccc4oc(=O)n(C)c4c3)cc2)OC1,
,1510 nM,[2H]C([2H])([2H])n1c(=O)oc2ccc(-c3ccc(C[C@@H](C#N)NC(=O)C4CNC4)cc3)cc21,

Compound,IC50 (active mouse DPP1 enzyme; mouse DPP1 enzyme),IC50 ([1]; human DPP1 enzyme),other results
Cn1c(=O)oc2ccc(-c3ccc(C[C@@H](C#N)NC(=O)C4CC5CCN4CC5)cc3)cc21 (stereo partly drawn),> 5000 nM,> 5000 nM,
